The results in this text go back to ChEMBL document CHEMBL5291721, “A preclinical secondary pharmacology resource illuminates target-adverse drug reaction associations of marketed drugs” (Nat Commun, 2023).

The structures appear in SMILES notation.

Assay [1] addresses T1, Muscarinic acetylcholine receptor M2 (Homo sapiens, UniProt P08172).
T1 sequence (P08172 whole entry): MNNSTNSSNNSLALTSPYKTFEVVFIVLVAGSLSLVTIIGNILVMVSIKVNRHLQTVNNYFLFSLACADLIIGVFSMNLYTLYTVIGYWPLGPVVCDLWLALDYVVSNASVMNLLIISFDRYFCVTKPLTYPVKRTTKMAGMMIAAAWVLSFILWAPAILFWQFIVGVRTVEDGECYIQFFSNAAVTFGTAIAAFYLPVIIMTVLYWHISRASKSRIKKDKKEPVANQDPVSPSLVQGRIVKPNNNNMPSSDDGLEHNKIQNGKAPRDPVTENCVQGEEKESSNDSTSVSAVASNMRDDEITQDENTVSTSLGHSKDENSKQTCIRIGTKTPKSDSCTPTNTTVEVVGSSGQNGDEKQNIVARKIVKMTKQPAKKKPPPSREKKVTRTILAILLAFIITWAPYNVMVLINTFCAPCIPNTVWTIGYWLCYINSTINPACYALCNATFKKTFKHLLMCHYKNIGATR
The class given is functional, cell-based.

Assay [2] concerns the target Voltage-gated inwardly rectifying potassium channel KCNH2 (Homo sapiens, UniProt Q12809). The class given is functional. As to conditions: read-out: AC50.
A further assay addresses T2, Adenosine receptor A1 (Homo sapiens, UniProt P30542).
T2 sequence (P30542 whole entry): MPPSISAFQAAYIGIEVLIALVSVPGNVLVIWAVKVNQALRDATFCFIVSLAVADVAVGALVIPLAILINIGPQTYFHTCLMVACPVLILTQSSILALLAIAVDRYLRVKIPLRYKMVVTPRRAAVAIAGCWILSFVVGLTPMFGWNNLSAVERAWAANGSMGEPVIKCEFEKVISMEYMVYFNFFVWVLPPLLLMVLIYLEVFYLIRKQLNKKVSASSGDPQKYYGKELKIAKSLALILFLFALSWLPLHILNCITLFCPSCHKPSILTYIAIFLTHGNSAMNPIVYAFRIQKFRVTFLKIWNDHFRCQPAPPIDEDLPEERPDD

Another assay concerns the target Motilin receptor (Homo sapiens, UniProt O43193).
Assay [3] addresses Sodium-dependent noradrenaline transporter (Homo sapiens, UniProt P23975).
Assay [4] deals with T3, Neuropeptide Y receptor type 1 (Homo sapiens, UniProt P25929).
T3 sequence (P25929 whole entry): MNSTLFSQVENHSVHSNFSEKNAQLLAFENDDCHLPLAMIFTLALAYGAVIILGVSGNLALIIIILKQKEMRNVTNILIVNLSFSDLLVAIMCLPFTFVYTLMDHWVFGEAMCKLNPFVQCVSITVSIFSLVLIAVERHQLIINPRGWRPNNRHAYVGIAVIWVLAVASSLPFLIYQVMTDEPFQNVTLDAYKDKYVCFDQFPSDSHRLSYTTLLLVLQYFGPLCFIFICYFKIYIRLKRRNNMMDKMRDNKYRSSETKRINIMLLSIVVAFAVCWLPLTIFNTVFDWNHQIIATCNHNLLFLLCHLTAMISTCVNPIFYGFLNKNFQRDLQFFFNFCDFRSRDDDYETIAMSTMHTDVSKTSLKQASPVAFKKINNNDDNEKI

Another assay addresses Vasopressin V2 receptor (Homo sapiens, UniProt P30518).
In assay [5] the target is T4, Prostaglandin G/H synthase 1 (Rattus norvegicus, UniProt Q63921).
T4 sequence (Q63921 whole entry): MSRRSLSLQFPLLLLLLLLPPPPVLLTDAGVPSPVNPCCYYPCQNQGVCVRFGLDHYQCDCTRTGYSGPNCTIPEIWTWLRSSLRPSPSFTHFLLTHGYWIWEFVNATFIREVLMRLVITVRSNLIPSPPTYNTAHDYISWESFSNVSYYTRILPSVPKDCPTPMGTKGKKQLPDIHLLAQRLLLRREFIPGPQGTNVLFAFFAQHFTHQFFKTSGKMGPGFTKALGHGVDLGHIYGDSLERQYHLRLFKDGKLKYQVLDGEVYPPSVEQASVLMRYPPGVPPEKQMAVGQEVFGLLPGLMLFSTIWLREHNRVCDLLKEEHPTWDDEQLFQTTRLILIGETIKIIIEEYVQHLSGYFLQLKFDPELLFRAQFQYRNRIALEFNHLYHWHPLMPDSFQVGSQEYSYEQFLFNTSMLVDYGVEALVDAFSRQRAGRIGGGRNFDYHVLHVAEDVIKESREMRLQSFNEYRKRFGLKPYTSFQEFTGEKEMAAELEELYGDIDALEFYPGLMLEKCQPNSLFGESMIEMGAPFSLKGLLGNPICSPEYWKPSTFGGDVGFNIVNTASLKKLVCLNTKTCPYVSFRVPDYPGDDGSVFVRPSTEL
The class given is functional.

The target in assay [6] is cGMP-inhibited 3',5'-cyclic phosphodiesterase 3A (Homo sapiens, UniProt Q14432). It counts as functional.
Sequence of cGMP-inhibited 3',5'-cyclic phosphodiesterase 3A (Q14432 whole entry): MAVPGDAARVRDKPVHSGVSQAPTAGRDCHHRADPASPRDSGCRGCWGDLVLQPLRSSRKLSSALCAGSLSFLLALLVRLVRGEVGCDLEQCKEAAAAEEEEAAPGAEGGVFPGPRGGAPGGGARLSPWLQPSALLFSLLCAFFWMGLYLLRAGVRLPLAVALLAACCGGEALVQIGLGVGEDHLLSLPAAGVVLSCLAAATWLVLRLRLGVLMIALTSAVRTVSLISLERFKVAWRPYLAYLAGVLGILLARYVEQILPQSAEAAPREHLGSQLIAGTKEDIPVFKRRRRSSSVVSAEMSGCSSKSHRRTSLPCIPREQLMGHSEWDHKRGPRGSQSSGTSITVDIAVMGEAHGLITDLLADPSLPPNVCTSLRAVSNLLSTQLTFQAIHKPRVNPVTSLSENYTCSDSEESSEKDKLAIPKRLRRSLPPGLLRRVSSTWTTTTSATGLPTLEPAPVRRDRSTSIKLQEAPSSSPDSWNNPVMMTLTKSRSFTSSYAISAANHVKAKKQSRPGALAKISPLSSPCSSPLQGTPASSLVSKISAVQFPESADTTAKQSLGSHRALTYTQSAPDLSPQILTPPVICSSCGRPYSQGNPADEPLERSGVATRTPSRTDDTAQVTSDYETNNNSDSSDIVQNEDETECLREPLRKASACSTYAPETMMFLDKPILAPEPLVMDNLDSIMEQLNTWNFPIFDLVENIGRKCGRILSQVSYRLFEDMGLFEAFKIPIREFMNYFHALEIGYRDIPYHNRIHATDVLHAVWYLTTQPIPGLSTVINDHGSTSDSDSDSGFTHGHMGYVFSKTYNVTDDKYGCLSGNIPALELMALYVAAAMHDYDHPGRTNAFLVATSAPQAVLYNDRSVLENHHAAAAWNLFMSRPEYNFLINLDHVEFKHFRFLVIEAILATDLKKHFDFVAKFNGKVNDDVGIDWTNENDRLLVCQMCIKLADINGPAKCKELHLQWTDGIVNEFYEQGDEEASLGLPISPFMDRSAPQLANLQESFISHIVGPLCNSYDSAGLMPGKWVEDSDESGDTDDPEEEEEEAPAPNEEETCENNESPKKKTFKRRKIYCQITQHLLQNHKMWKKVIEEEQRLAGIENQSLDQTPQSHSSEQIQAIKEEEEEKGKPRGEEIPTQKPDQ
Assay [7] deals with T5, Alpha-1A adrenergic receptor (Homo sapiens, UniProt P35348).
T5 sequence (P35348 whole entry): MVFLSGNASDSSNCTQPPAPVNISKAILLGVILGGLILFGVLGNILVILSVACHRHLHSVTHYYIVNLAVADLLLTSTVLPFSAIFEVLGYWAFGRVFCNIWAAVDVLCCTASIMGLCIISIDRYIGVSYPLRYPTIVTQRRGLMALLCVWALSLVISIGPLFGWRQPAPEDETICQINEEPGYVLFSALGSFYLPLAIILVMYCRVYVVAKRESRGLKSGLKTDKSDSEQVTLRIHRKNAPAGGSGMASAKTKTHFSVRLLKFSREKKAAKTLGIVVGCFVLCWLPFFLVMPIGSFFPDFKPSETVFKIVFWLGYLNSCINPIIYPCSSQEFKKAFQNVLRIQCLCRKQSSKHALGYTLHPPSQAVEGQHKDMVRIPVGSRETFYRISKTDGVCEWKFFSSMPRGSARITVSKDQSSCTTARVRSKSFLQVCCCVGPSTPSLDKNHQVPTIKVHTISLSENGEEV
The class given is functional, cell-based.
Further: assay procedure not described here.

Sequence of Voltage-gated inwardly rectifying potassium channel KCNH2 (Q12809 whole entry): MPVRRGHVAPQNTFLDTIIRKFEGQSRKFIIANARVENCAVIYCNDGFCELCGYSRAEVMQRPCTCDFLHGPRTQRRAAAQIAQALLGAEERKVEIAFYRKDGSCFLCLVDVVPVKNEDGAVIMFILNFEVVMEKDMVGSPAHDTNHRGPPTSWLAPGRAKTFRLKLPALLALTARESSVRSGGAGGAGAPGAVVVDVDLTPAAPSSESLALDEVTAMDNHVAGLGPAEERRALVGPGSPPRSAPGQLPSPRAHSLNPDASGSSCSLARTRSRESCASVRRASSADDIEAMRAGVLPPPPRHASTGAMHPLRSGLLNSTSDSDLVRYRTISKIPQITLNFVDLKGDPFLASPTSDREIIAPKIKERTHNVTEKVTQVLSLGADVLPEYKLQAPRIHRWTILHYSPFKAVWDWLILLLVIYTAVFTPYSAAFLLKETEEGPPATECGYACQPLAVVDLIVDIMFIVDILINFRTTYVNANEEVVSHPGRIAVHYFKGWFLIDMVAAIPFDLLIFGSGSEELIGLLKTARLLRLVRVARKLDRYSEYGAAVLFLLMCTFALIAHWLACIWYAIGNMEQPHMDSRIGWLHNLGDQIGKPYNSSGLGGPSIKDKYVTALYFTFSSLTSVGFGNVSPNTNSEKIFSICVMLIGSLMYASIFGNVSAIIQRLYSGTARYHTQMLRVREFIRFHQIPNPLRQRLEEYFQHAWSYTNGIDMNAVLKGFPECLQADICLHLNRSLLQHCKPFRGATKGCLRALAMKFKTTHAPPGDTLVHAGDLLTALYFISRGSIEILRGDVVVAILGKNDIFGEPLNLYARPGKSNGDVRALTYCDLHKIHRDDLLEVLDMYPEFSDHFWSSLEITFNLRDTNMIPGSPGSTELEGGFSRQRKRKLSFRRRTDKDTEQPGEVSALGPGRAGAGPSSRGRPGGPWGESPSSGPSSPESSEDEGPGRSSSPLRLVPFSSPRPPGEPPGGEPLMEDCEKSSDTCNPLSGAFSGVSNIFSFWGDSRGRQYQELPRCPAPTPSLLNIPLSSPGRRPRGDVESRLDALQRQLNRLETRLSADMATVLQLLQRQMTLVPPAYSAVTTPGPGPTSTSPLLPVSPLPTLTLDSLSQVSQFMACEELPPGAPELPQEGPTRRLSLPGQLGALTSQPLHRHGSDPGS
Sequence of Motilin receptor (O43193 whole entry): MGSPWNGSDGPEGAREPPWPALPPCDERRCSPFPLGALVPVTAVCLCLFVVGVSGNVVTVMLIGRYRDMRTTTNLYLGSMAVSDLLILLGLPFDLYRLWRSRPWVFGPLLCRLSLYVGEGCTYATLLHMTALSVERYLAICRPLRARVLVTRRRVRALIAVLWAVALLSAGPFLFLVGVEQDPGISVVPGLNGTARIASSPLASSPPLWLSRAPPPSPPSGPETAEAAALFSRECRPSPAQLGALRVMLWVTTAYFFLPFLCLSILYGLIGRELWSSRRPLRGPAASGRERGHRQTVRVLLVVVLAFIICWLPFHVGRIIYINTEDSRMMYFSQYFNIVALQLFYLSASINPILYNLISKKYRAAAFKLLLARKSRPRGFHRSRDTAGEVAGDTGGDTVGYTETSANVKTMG
Sequence of Sodium-dependent noradrenaline transporter (P23975 whole entry): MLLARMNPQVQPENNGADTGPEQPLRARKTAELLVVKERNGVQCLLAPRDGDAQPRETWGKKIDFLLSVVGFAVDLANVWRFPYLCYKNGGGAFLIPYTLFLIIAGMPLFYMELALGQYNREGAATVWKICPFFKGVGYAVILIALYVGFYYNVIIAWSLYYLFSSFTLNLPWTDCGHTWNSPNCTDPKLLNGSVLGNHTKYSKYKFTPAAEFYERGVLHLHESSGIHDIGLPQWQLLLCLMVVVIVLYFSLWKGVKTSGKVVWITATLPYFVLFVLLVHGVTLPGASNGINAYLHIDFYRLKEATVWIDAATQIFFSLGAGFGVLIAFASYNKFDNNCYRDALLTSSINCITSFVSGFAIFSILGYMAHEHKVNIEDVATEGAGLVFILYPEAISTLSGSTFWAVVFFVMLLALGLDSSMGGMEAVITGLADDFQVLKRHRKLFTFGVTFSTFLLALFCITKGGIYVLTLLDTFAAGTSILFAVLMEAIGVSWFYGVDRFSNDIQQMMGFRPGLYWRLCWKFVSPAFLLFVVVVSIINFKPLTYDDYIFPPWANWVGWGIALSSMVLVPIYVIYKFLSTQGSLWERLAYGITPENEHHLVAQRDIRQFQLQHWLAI
Sequence of Vasopressin V2 receptor (P30518 whole entry): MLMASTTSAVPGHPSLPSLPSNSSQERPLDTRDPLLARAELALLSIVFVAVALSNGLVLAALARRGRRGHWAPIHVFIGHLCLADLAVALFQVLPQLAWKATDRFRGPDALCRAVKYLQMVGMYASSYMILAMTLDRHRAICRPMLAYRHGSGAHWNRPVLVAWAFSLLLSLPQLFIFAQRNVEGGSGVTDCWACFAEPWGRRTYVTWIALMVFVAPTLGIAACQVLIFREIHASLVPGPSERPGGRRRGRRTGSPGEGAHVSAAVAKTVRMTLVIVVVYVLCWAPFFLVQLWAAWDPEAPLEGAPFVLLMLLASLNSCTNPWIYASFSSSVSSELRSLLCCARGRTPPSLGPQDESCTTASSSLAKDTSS

As for `C[C@@H]1O[C@@H](O[C@@H]2C=C3CC[C@@H]4[C@H](CC[C@]5(C)[C@@H](c6ccc(=O)oc6)CC[C@]45O)[C@@]3(C)CC2)[C@H](O)[C@H](O)[C@H]1O` [PROSCILLARIDIN], the half-maximal activity concentration (AC50) (in assay [1]; in [2]; at Adenosine receptor A1; on Motilin receptor; in [3]; in assay [4]) was greater than 30 µM throughout. The AC50 (usually the midpoint of the concentration-response curve, whichever way the signal moves) was greater than 30 µM on Vasopressin V2 receptor, 13 µM in assay [5], greater than 30 µM in assay [6] and greater than 30 µM in [7].
`NC(=O)CN1CC(O)CC1=O` (stereo not given) [OXIRACETAM]: the AC50 (in assay [1]; in assay [2]; on Adenosine receptor A1; at Motilin receptor; in [3]; in assay [4]) was greater than 30 µM each time. Further, the AC50 (at Vasopressin V2 receptor; in assay [5]; in assay [6]; in assay [7]) was greater than 30 µM each time.
As for `Brc1c(NC2=NCCN2)ccc2nccnc12` [BRIMONIDINE], the AC50 (in assay [1]; in [2]; at Adenosine receptor A1; at Motilin receptor; in assay [3]; in assay [4]) was greater than 30 µM each time. The half-maximal activity concentration (AC50) was greater than 30 µM at Vasopressin V2 receptor, greater than 30 µM in [5], greater than 30 µM in assay [6] and 0.645 µM in assay [7].
Take `Nc1nc(Cl)nc2c1ncn2[C@H]1C[C@H](O)[C@@H](CO)O1` [CLADRIBINE]: the AC50 (in assay [1]; in [2]; at Adenosine receptor A1; on Motilin receptor; in assay [3]; in [4]) was greater than 30 µM each time. In addition, the AC50 on Vasopressin V2 receptor is greater than 30 µM; in [5], greater than 30 µM; in [6], 28 µM; in assay [7], greater than 30 µM.
With `Fc1ccc(C(c2ccccc2)(c2ccccc2F)n2ccnc2)cc1` (stereo not given) [FLUTRIMAZOLE], the AC50 in [1] was greater than 30 µM; in assay [2] it was 1.68 µM; on Adenosine receptor A1, greater than 30 µM; on Motilin receptor it was 27 µM; in assay [3], greater than 30 µM; in assay [4], greater than 30 µM. The half-maximal activity concentration (AC50) (at Vasopressin V2 receptor; in assay [5]; in assay [6]; in [7]) was greater than 30 µM throughout.
